Experiments:
Assay type in all cases: cell-based
[1] = system: mouse zona pellucida (bonding of mouse sperm); assay: Zona pellucida bonding test in mice (sperm bonding to isolated zonae); conditions: 20 sperm bonds per zona corresponds to 100%
Method: (§1) To recover sperm, a mouse buck is sacrificed, and the two epididymal appendages are removed and transferred into the prepared small Petri dishes [see above under b)]. The tissue parts are cut in the medium, so that the sperm can escape. The sperm are capacitated for one hour in the incubator. After the capacitation time has been completed, the sperm are diluted 1:5 with BWW/0.3 BSA. For counting in the counting chamber, a 1:1 aliquot is diluted with doubly distilled H2O. The desired sperm concentration is 40,000-80,000/0.1 ml.
(§2) The animals are sacrificed 13 hours after the HCG injection, and the tubes are removed and transferred into the prepared small Petri dishes [see above under a)]. Pending further processing, the small dishes are kept at 37° C. on the warming plate. Under the stereomicroscope, the tubes that are in oil are pulled apart. In this case, the cumulus clouds pour out, which then are transferred into the prepared medium drops (two cumulus clouds per drop).
The sperm and oocytes are obtained as described in in vitro fertilization.
The oocytes that are obtained as under I.2.3. are taken up by a finely drawn Pasteur pipette, whose diameter must be somewhat smaller than the diameter of the oocytes, with a few μl of BWW medium. This process is repeated several times and finally causes the zonae pellucida to burst. The cytoplasmic portion of the ooctyes is released, and the isolated zona pellucida is collected for further tests and covered in 0.1 ml of BWW medium with equilibrated oil and kept at 37° C.
The capacitated mouse sperm (see I.2.2) are preincubated for 15 minutes either with a solvent or the desired substance, and then 0.1 ml drops are added to the isolated zonae pellucidae, in such a way that the incubation volume is a total of 0.2 ml (under oil). About 20 zonae pellucidae are studied per drop. The sperm concentration per drop is between 10,000 and 30,000 per μl. Sperm and zonae are incubated for 45 minutes in an incubator (see Description under I.2). After the incubation period, the number of bonded sperm per zona is evaluated under an inverse microscope. The upper limit of the sperm, which have yet to be counted exactly, is 20 sperm per zona pellucida under control conditions.
10,000 Sperm per 0.01 ml with 20 sperm bonds per zonae corresponds to 100%

[2] = system: human zona pellucida (bonding of human sperm); assay: Zona pellucida bonding test in humans (hemizona); conditions: 4 hours at 37° C.
Method: For the zona bonding test in humans, the ejaculate of normo-zoospermatocidal donor semen is prepared with use of SpermFertil^(R) glass wool columns (Mello Ltd., FRG). The filtrates were washed and resuspended in HFT-HSA (HFT=human tubal fluid medium according to Quinn et al., supplemented with 10 mg/ml of human serum albumin=HSA).
All human oocytes are obtained from post mortem material. Provision is made at all times to ensure that all legal, ethical and moral guidelines during the entire process are strictly followed.
Unless otherwise indicated, the oocytes are stored in 36.6 mmol of HEPES buffer, pH 7.4, which contains […] MgCl2 and 0.1% PVP at 4° C.
The experiments consist of three incubation drops that contain 10 μl of a standard HTF-HSA medium (see above) and 40 μl of working medium (see below). A specific number of oocytes (for TEM) or hemizonae for the bonding was added to each drop to ensure bonding. For the bonding experiments, a 10 μl sperm drop (50×10^6/ml) was added to each drop, covered with mineral oil, and incubated for 4 hours at 37° C. in 5% CO2. The statistical evaluation was done according to the non-parametric Mann-Whitney two-sample test.
Composition of the working medium: 20 μl of 5 mmol NaH2PO4 (adjusted with phosphoric acid), pH 2.5, plus 20 μl of a specially composed doubly-concentrated HTF-HSA medium, mixed at a ratio of 1:1 (vol/vol).
Composition of the doubly-concentrated HTF-HSA medium: […]

[3] = system: capacitated human sperm; assay: Acrosome reaction in capacitated human sperm
[4] = system: sperm; assay: Sperm movement parameters
[5] = system: mouse oocytes and sperm (in vitro fertilization); assay: Mouse in vitro fertilization; conditions: 24 hours incubation
Excerpt: I. In Vitro Fertilization
In vitro fertilization represents a test system that makes possible a first review of a contraceptive effect of substances. In this case, the possibility exists of studying whether the contraceptive effect can be attributed primarily to an inhibition of the sperm function(s) or to an inhibiting effect on the oocytes, or to the two above-mentioned effects.
Fertile female mice (CB6F1 strain) about 12 weeks of age; fertile male mice (CB6F1 strain) at least 14 weeks of age.
c) 0.1 ml of BWW/0.3% BSA, corresponding to the concentrations that are to be tested, is mixed with or without substance (control) for the fertilization (prepared after removal of the tubes), covered with equilibrated oil, and kept at 37° C.
10 injection units of PMS/0.1 ml are injected intrapericutaneously into the approximately 12-week-old fertile mice, and 54 hours later, 10 injection units of HCG/0.1 ml are administered.
as §1, §2
0.1 ml of dilute sperma-defined concentration is added to the oocytes that are in the medium drops and is incubated for 24 hours in the incubator at 37° C.
After incubating for 24 hours in the incubator, the following parameters are computed:
The fertilization rate corresponds to the number of divided oocytes per total number of intact oocytes.

Row | Substance | % Inhibition of Sperm Bonding (Mouse) to the Mouse Zona Pellucida ([1]; 0.1 μg/ml peptide) | % Inhibition of Sperm Bonding (Mouse) to the Mouse Zona Pellucida ([1]; 10 μg/ml peptide) | % Inhibition of Sperm Bonding (Human) to the Human Zona Pellucida ([2]; 1 μg/ml peptide) | % Inhibition of Sperm Bonding (Human) to the Human Zona Pellucida ([2]; 10 μg/ml peptide) | % Inhibition of Sperm Bonding (Mouse) to the Mouse Zona Pellucida ([1]; 100 μg/ml peptide) | triggering of the acrosome reaction [3] | influence on parameters of the sperm movement [4] | % Inhibition of Sperm Bonding (Mouse) to the Mouse Zona Pellucida ([1]; 1 μg/ml peptide) | % Inhibition of Mouse In Vitro Fertilization ([5]; 0.1 μg/ml peptide) | % Inhibition of Mouse In Vitro Fertilization ([5]; 1 μg/ml peptide) | % Inhibition of Mouse In Vitro Fertilization ([5]; 10 μg/ml peptide)
1 | NH2-TRRCRTASHPVSASE-COOH (H-TRRCRTASHPVSASE-OH) [human ZPC (ZP3) peptide, residues 410-424] | 86% | 87% | 61% | 88% |  |  |  |  |  |  | 
2 | NH2-TPT..PDQNASPY-COOH (H-TPTPDQNASPY-OH) [human ZPC (ZP3) peptide, residues 220-230] |  |  | 0% | 18% |  |  |  |  |  |  | 
3 | NH2-SRNRRHVTEEADVT-COOH (H-SRNRRHVTEEADVT-OH) [human ZPC (ZP3) peptide, residues 348-361] | 69% | 85% | 0% | 0% | 82% |  |  |  |  |  | 
4 | NH2-RYPRQGNVSS-COOH (H-RYPRQGNVSS-OH) [human ZPC (ZP3) peptide, residues 141-150] | 71% | 89% | 76% | 77% | 91% | do not trigger the acrosome reaction | does not influence any parameters of the sperm movement |  |  |  | 
5 | Ac-CGTPSHSRRQPHVMS-NH2 [human ZPC (ZP3) peptide, residues 327-341] |  |  | 45% | 88% |  | do not trigger the acrosome reaction |  |  |  |  | 
6 | NH2-SQFQIHGPRQ-COOH (H-SQFQIHGPRQ-OH) |  | 72% |  |  |  |  |  | 61% | 52% | 29% | 1%
7 | Ac-SQFQIHGPRQ-NH2 |  |  |  |  |  |  |  |  | 0% | 63% | 5%
8 | Ac-QRPGHIQFQS-NH2 [Ac-QRPGHIQFQS-NH2 (reverse), reference compound] |  | 0% |  |  |  |  |  | 0% |  |  | 

Source: US6344442B2, “Zona pellucida proteins for contraception” (Schering Aktiengesellschaft, priority 1996, dated 2002)
